Reference: patent US7220770B2, “Heterocyclo-substituted imidazoles for the treatment of inflammation” (priority 1994, dated 2007)

Compound	melting point
CS(=O)(=O)c1ccc(-n2cc(-c3cccc(F)c3)nc2-c2ccc(Cl)cc2)cc1 [Example 14, 2-(4-Chlorophenyl)-4-(3-fluorophenyl)-1-[4-(methylsulfonyl)phenyl]-1H-imidazole]	194 to 196 °C
CC(C)SCc1cn(-c2ccc(S(C)(=O)=O)cc2)c(-c2ccc(Cl)cc2)n1 [Example 168, 2-(4-Chlorophenyl)-4-[[(1-methylethyl)thio]methyl]-1-[4-(methylsulfonyl)phenyl]-1H-imidazole]	118 °C
CS(=O)(=O)c1ccc(-n2cc(-c3ccc(F)cc3)nc2-c2ccccn2)cc1 [Example 38, 2-[4-(4-Fluorophenyl)-1-[4-(methylsulfonyl)phenyl]-1H-imidazol-2-yl]pyridine]	88 to 91 °C
Cc1ccc(-c2nc(C(F)(F)F)cn2-c2ccc(S(C)(=O)=O)cc2)nc1 [Example 33, 5-Methyl-2-[1-[4-(methylsulfonyl)phenyl]-4-trifluoromethyl-1H-imidazol-2-yl]pyridine]	196 °C
CCOC(=O)C1(O)CN(c2ccc(S(C)(=O)=O)cc2)C(c2ccc(Cl)cc2)=N1 (stereo not shown) [Example 156, Ethyl [2-(4-chlorophenyl)-4-hydroxy-1-[4-(methylsulfonyl)phenyl]-4,5-dihydro-1H-imidazol-4-yl]carboxylate]	162 °C
COc1ccc(-c2cn(-c3ccc(S(C)(=O)=O)cc3)c(-c3ccc(Cl)cc3)n2)cc1 [Example 13, 2-(4-Chlorophenyl)-4-(4-methoxyphenyl)-1-[4-(methylsulfonyl)phenyl]-1H-imidazole]	110 to 113 °C
Cc1cccc(-c2nc(C(F)(F)F)cn2-c2ccc(S(C)(=O)=O)cc2)n1 [Example 32, 2-Methyl-6-[1-[4-(methylsulfonyl)phenyl]-4-trifluoromethyl-1H-imidazol-2-yl]pyridine]	205 °C
